PubChem BioAssay AID1259411 (Chemical Carcinogenesis Research Information System (CCRIS), 2018)
Activity calls are given as the source filed them. How the calls were made is not given here.

Tested on: rodent carcinogenicity bioassays, tumor incidence
Assay: CCRIS carcinogenicity studies
How it was run: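 NCI-built, expert-reviewed records of carcinogenicity and related test outcomes (mutagenicity, tumor promotion/inhibition) compiled from published and report sources, historical span 1985-2011, not updated.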

With `CN(N=O)C(=O)NCCC[C@H](N)C(=O)O` the carcinogen call (Species: HAMSTER, Strain/Sex: SYRIAN/FEMALE, Route: INTRAPERITONEAL, Dose: 218, 654 MG/KG 1/WK FOR 12 WK (LOW DOSE) OR 6 WK (HIGH DOSE), Tumor Site: Type of Lesion: PANCREAS: CARCINOMA, CARCINOMA (IN SITU), PERITONEAL CAVITY: MESOTHELIOMA;MAMMARY GLAND: CARCINOMA, STOMACH: PAPILLOMA,, Tumor Site: Type of Lesion: PANCREAS: CARCINOMA, CARCINOMA (IN SITU), PERITONEAL CAVITY: MESOTHELIOMA;MAMMARY GLAND: CARCINOMA, STOMACH: PAPILLOMA) was “active; positive” and the carcinogen call (Species: HAMSTER, Strain/Sex: SYRIAN/MALE, Route: INTRAPERITONEAL, Dose: 218, 654 MG/KG 1/WK FOR 12 WK (LOW DOSE) OR 6 WK (HIGH DOSE), Tumor Site: Type of Lesion: PANCREAS: CARCINOMA, CARCINOMA (IN SITU), STOMACH: PAPILLOMA) was “active; positive”.

For `CCC(O)OC` (configuration not stated), the carcinogen call (Species: MOUSE, Strain/Sex: B6C3F1/FEMALE, Route: INHALATION, Dose: 0, 300, 1000, 3000 PPM 6 HR/D 5 D/WK FOR 2 YR (STUDY DURATION: 2 YR), Dose: 0, 300, 1000, 3000 PPM 6 HR/D 5 D/WK FOR 2 YR (STUDY DURATION: 2 YR)) was “inactive; negative”, the carcinogen call (Species: MOUSE, Strain/Sex: B6C3F1/MALE, Route: INHALATION, Dose: 0, 300, 1000, 3000 PPM 6 HR/D 5 D/WK FOR 2 YR (STUDY DURATION: 2 YR), Dose: 0, 300, 1000, 3000 PPM 6 HR/D 5 D/WK FOR 2 YR (STUDY DURATION: 2 YR)) was “inactive; negative” and the carcinogen call (Species: RAT, Strain/Sex: F344/FEMALE, Route: INHALATION, Dose: 0, 300, 1000, 3000 PPM 6 HR/D 5 D/WK FOR 2 YR (STUDY DURATION: 2 YR), Dose: 0, 300, 1000, 3000 PPM 6 HR/D 5 D/WK FOR 2 YR (STUDY DURATION: 2 YR)) was “inactive; negative”. For the same compound, the carcinogen call (Species: RAT, Strain/Sex: F344/MALE, Route: INHALATION, Dose: 0, 300, 1000, 3000 PPM 6 HR/D 5 D/WK FOR 2 YR (STUDY DURATION: 2 YR), Dose: 0, 300, 1000, 3000 PPM 6 HR/D 5 D/WK FOR 2 YR (STUDY DURATION: 2 YR)) was “inactive; negative”.

`c1ccc2c(c1)ccc1cc3ccc4ccccc4c3cc12` was tested, and the carcinogen call (Species: MOUSE, Strain/Sex: SWISS/FEMALE, Route: DERMAL, Dose: 0, 78 UG IN ACETONE (0.4%) 2/WK FOR 60 WK FOR A TOTAL DOSE OF 0, 9.4 MG (STUDY DURATION: 80 WK), Dose: 0, 78 UG IN ACETONE (0.4%) 2/WK FOR 60 WK FOR A TOTAL DOSE OF 0, 9.4 MG (STUDY DURATION: 80 WK), Tumor Site: Type of Lesion: SKIN: CARCINOMA) was “active; positive”.

For `Cc1ccc2cc3c(ccc4ccccc43)c3c2c1C=C3`, the carcinogen call (Species: MOUSE, Strain/Sex: SWISS/FEMALE, Route: DERMAL, Dose: 0.2 UMOL IN 33.4 µL ACETONE TO SHAVED DORSAL SKIN 2/WK FOR 20 WK (STUDY DURATION: 52 WK), Tumor Site: Type of Lesion: SKIN: PAPILLOMA, KERATOACANTHOMA, EPIDERMAL CARCINOMA) was “active; positive”.

For `c1ccc2occc2c1`, the carcinogen call (Species: MOUSE, Strain/Sex: B6C3F1/FEMALE, Route: GAVAGE, Dose: 0, 120, 240 MG/KG IN CORN OIL 5 D/WK FOR 103 WK (STUDY DURATION: 104 WK), Dose: 0, 120, 240 MG/KG IN CORN OIL 5 D/WK FOR 103 WK (STUDY DURATION: 104 WK), Tumor Site: Type of Lesion: LUNG: ALVEOLAR/BRONCHIOLAR ADENOMA, ALVEOLAR/BRONCHIOLAR CARCINOMA, LIVER: HEPATOCELLULAR ADENOMA, HEPATOCELLULAR ADENOM) was “active; positive”, the carcinogen call (Species: MOUSE, Strain/Sex: B6C3F1/MALE, Route: GAVAGE, Dose: 0, 60, 120 MG/KG IN CORN OIL 5 D/WK FOR 103 WK (STUDY DURATION: 104 WK), Dose: 0, 60, 120 MG/KG IN CORN OIL 5 D/WK FOR 103 WK (STUDY DURATION: 104 WK), Tumor Site: Type of Lesion: LUNG: ALVEOLAR/BRONCHIOLAR ADENOMA, ALVEOLAR/BRONCHIOLAR ADENOMA OR CARCINOMA, LIVER: HEPATOCELLULAR ADENOMA, HEPATOCELL) was “active; positive” and the carcinogen call (Species: RAT, Strain/Sex: F344/FEMALE, Route: GAVAGE, Dose: 0, 60, 120 MG/KG IN CORN OIL 5 D/WK FOR 103 WK (STUDY DURATION: 104 WK), Dose: 0, 60, 120 MG/KG IN CORN OIL 5 D/WK FOR 103 WK (STUDY DURATION: 104 WK), Tumor Site: Type of Lesion: KIDNEY: TUBULAR CELL ADENOCARCINOMA) was “active; positive”. The carcinogen call (Species: RAT, Strain/Sex: F344/MALE, Route: GAVAGE, Dose: 0, 30, 60 MG/KG IN CORN OIL 5 D/WK FOR 103 WK (STUDY DURATION: 104 WK), Dose: 0, 30, 60 MG/KG IN CORN OIL 5 D/WK FOR 103 WK (STUDY DURATION: 104 WK)) was “inactive; negative”.

In the case of `C1OC1C1CO1` (configuration not stated), the carcinogen call (Species: MOUSE, Route: DERMAL, Tumor Site: Type of Lesion: INTEGUMENTARY SYSTEM (SKIN)) is reported as “active; positive”, the carcinogen call (Species: MOUSE, Route: INTRAPERITONEAL, Tumor Site: Type of Lesion: LUNG) is reported as “active; positive” and the carcinogen call (Species: MOUSE, Route: SUBCUTANEOUS, Tumor Site: Type of Lesion: INJECTION SITE) is reported as “active; positive”. For the same compound, the carcinogen call (Species: MOUSE, Strain/Sex: B6C3F1/FEMALE, Route: INHALATION, Dose: 0, 2.5, 5.0 PPM 6 HR/D 5 D/WK FOR 6 WK (STUDY DURATION: 18 MONTHS), Dose: 0, 2.5, 5.0 PPM 6 HR/D 5 D/WK FOR 6 WK (STUDY DURATION: 18 MONTHS), Tumor Site: Type of Lesion: HARDERIAN GLAND: TUMOR) was “active; positive”, the carcinogen call (Species: RAT, Route: SUBCUTANEOUS, Tumor Site: Type of Lesion: INJECTION SITE) was “active; positive” and the carcinogen call (Species: RAT, Strain/Sex: SPRAGUE-DAWLEY/FEMALE, Route: INHALATION, Dose: 0, 2.5, 5.0 PPM 6 HR/D 5 D/WK FOR 6 WK (STUDY DURATION: 18 MONTHS), Dose: 0, 2.5, 5.0 PPM 6 HR/D 5 D/WK FOR 6 WK (STUDY DURATION: 18 MONTHS), Tumor Site: Type of Lesion: NASAL MUCOSA: TUMOR) was “active; positive”.

In the case of `[Si]`, the carcinogen call (Species: RAT, Strain/Sex: F344/FEMALE, Route: SUBCUTANEOUS IMPLANT, Dose: 10 X 20 X 0.3 MM SHEETS IMPLANTED INTO 2 SITES IN LATERAL ABDOMINAL REGION AND 1 SITE ON THE BACK (STUDY DURATION: 741 D, Tumor Site: Type of Lesion: IMPLANT SITE: MALIGNANT HISTIOCYTOMA) is reported as “active; positive”.

For `OCc1c2ccccc2c2ccc3cccc4ccc1c2c43`, the carcinogen call (Species: MOUSE, Strain/Sex: B6C3F1/MALE, Route: INTRAPERITONEAL, Dose: 0, 0.0025, 0.005, 0.015 UMOL/G ONCE AT 12 DAYS OF AGE (STUDY DURATION: 10 MO), Dose: 0, 0.0025, 0.005, 0.015 UMOL/G ONCE AT 12 DAYS OF AGE (STUDY DURATION: 10 MO), Tumor Site: Type of Lesion: LIVER: HEPATOMA) was “active; positive” and the carcinogen call (Species: RAT, Strain/Sex: SPRAGUE-DAWLEY/FEMALE, Route: SUBCUTANEOUS, Dose: 0, 0.2 UMOL 3/WK FOR 20 DOSES (STUDY DURATION: 52 WK), Tumor Site: Type of Lesion: INJECTION SITE: SARCOMA) was “active; positive”.

In the case of `COP(=O)(OC)OC`, the carcinogen call (Species: MOUSE, Strain/Sex: B6C3F1/FEMALE, Route: GAVAGE, Dose: 0, 250, 500 MG/KG 3/WK FOR 103 WK, Dose: 0, 250, 500 MG/KG 3/WK FOR 103 WK, Tumor Site: Type of Lesion: UTERUS (ENDOMETRIUM): ADENOCARCINOMA (NOS)) is reported as “active; positive”, the carcinogen call (Species: MOUSE, Strain/Sex: B6C3F1/MALE, Route: GAVAGE, Dose: 0, 250, 500 MG/KG 3/WK FOR 103 WK, Dose: 0, 250, 500 MG/KG 3/WK FOR 103 WK) is reported as “inactive; negative” and the carcinogen call (Species: RAT, Strain/Sex: F344/FEMALE, Route: GAVAGE, Dose: 0, 50, 100 MG/KG 3/WK FOR 104 WK (STUDY DURATION: 105 WK), Dose: 0, 50, 100 MG/KG 3/WK FOR 104 WK (STUDY DURATION: 105 WK)) is reported as “inactive; negative”. The carcinogen call (Species: RAT, Strain/Sex: WISTAR/FEMALE, Route: ORAL, Dose: 0, 1, 10, 100 MG/KG/D IN DRINKING WATER FOR DURATION OF STUDY, HIGH DOSE REDUCED TO 50 MG/KG IN WK 54 (STUDY DURATION: 3, Dose: 0, 1, 10, 100 MG/KG/D IN DRINKING WATER FOR DURATION OF STUDY, HIGH DOSE REDUCED TO 50 MG/KG IN WK 54 (STUDY DURATION: 3) was “inactive; negative” and the carcinogen call (Species: RAT, Strain/Sex: WISTAR/MALE, Route: ORAL, Dose: 0, 1, 10, 100 MG/KG/D IN DRINKING WATER FOR DURATION OF STUDY, HIGH DOSE REDUCED TO 50 MG/KG IN WK 54 (STUDY DURATION: 3, Dose: 0, 1, 10, 100 MG/KG/D IN DRINKING WATER FOR DURATION OF STUDY, HIGH DOSE REDUCED TO 50 MG/KG IN WK 54 (STUDY DURATION: 3) was “inactive; negative”.

For `NC1=NCN([C@@H]2O[C@H](CO)[C@@H](O)[C@H]2O)C(=O)N1`, the carcinogen call (Species: RAT, Strain/Sex: F344/MALE, Route: INTRAPERITONEAL, Dose: 0, 50 MG/KG IN 0.9% SALINE 3/WK FOR 1 YR (STUDY DURATION: 1 YR)) was “inactive; negative”.
